Several values for one entry are separate records, joined by “and”; a condition that tells them apart may be missing. Equal entries are not always repeated. Marks after values point to notes of the source that are not given here.
Tests used:
[1] = Interaction of 1% w/v lecithin with individual polyphenols, depletion from solution by HPLC; conditions: pH 2.43, anthocyanins depleted from single-strength cranberry juice, others from aqueous solution
Experimental: Aqueous polyphenol solutions near saturation were prepared by dissolving the individual polyphenols in 50 mL ultrapure water. Depends on their solubility in water, the polyphenols solutions were made in different concentrations. […] The pH of the solution was then adjusted to ˜2.43 using 6 M HCl in order to approximate the pH of juice. The adjusted solution was centrifuged at 3220×g for 20 min to remove any undissolved solids. Next, 1% w/v lecithin was added to 10 mL of the supernatant containing the polyphenols or the phenolic acids. The mixture was vortexed for 1 min and then centrifuged at 3220×g for 20 min to pellet any precipitate. The supernatant was transferred to a 2 mL microcentrifuge tube and was centrifuged for another 20 min at 21130×g before HPLC analysis. The depletion of individual polyphenol content expressed as a percent was determined according to the following equation: Polyphenol and phenolic acid content remaining in the supernatant were quantitated by reverse phase HPLC using a Dionex Ultimate 3000 HPLC equipped with an LPG-3400 quaternary pump, a WPS-3000 analytical autosampler, a DAD-3000 diode array detector, and an FLD-3100 fluorescence detector. […] Separation was with formic acid:water (5:95, v/v) (A) and methanol (B). The flow rate was set to 1 mL/min. The gradient was initially 5% B for 1 min, then increased to 35% B over 39 min, from 35% to 95% B over the next 10 min, and held constant at 95% B for 5 min, then decreased to 5% B over 2 min, and re-equilibrated at 5% B for the remaining 8 min. The column oven was set to 30° C. The absorbance was monitored at 254, 280, 370 and 520 nm. […] The gallic acid peaks in the 280 nm chromatogram was quantitated on the basis of authentic external standards. […] The flow rate was set to 0.5 mL/min. The gradient began at 15% B for 2 min, increased to 90% B over 6 min, then decreased to 15% B over 1 min and re-equilibrated at 15% B for the remaining 1 min. The column oven was set to 25° C. We collected absorbance data at 254, 280, 370 and 520 nm. All the peaks were identified in comparison to authentic external standards.

[2] = values from literature; cited from earlier work
[3] = surfactants of Table 2; cited from earlier work
[4] = cited from earlier work; for pka: phospholipid components of lecithin
[5] = Depletion of monomeric anthocyanins in diluted cranberry juice by surfactants, lecithins or phospholipids (pH differential method)
Experimental: Classic Mash Cranberry Juice Concentrate with essence returned was received frozen from the supplier (Ocean Spray Cranberries Inc., Lakeville-Middleboro, Mass., U.S.A.). The concentrate came at 50.0° Brix from manufacturer. It was immediately thawed, aliquoted and stored at −20° C. until use. Prior to experiment use, the concentrate was thawed, brought to room temperature, and diluted to 7.5° Brix according to the manufacture specification.
Individual surfactants/phospholipids were added to 10 mL juice samples at a final concentration of 0.01 M. Varying amounts of lecithin were added to 10 mL juice samples at 0.05, 0.1, 0.5, 1, 2, 3, 4, or 5% w/v. Lecithin with different HLB values were added to 10 mL juice samples at 1, 2, 3, 4, or 5% w/v. All mixtures were then vortexed for 3 min and then centrifuged at 3220×g for 20 min. The centrifugation step was repeated with the supernatants. All procedures were carried out at ambient temperatures unless otherwise specified.
Monomeric anthocyanin (MA) content was determined by the AOAC pH differential method. Samples were placed in 96-well plates (Thermo Scientific) for spectral acquisition using a SpectraMax Plus Microplate Reader (Molecular Devices, Sunnyvale, Calif., U.S.A.). We used the SoftMax Pro 5.4.4 to scale for pathlength (Molecular Devices, Sunnyvale, Calif., U.S.A.). Juice samples were diluted such that the absorbance at 520 nm was within the linear range of the instrument. Triplicate samples were analyzed, and the average values are reported.
The depletion of MA expressed as a percent was determined according to the following equation: […]

[6] = 0.01M phospholipid in cranberry juice

Molecule	Depletion % [1]	HLB value [3]	other results
Oc1cc(O)c2c(c1)O[C@H](c1ccc(O)c(O)c1)[C@@H](O)C2 [(+)-catechin]	18.4%		Depletion % ([1]; listed as (+)-Catechin): 18.4±0.5%; Log P [2]: 0.51^†
CCCCCCCC/C=C\CCCCCCCC(=O)O [oleic acid]		1	
O=c1c(O)c(-c2ccc(O)c(O)c2)oc2cc(O)cc(O)c12 [quercetin]	41.3%		Depletion % ([1]; listed as Quercetin): 41.3±1.8%; Log P [2]: 1.82 ± 0.32
CCCCCCCCCCCCCCCCCC(=O)OCC(O)CO (racemic) [glycerol monostearate]		3.8	
hexaglycerol dioleate		9	
Oc1cc(O)c2cc(O[C@@H]3OC[C@H](O)[C@H](O)[C@H]3O)c(-c3ccc(O)c(O)c3)[o+]c2c1 [cyanidin-3-O-arabinoside]	16.0%		Depletion % ([1]; listed as cyanidin-3-O-arabinose): 16.0±6.5%
O=c1c(O[C@@H]2O[C@H](CO)[C@H](O)[C@H](O)[C@H]2O)c(-c2ccc(O)c(O)c2)oc2cc(O)cc(O)c12 [quercetin-3-O-galactoside]	35.4%		Depletion % ([1]; listed as Quercetin-3-O-galactoside): 35.4±1.0%
peonidin-3-O-galactoside	42.2%		Depletion % ([1]; listed as Peonidin-3-O-galactoside): 42.2±4.1%
Phosphatidylcholine (soy) [PC]			pka [4]: 1.0; Depletion % of monomeric anthocyanins [5, 6]: 6.69±3.57% and 6.69 ± 3.6^b %
OC[C@H]1O[C@@H](Oc2cc3c(O)cc(O)cc3[o+]c2-c2ccc(O)c(O)c2)[C@H](O)[C@@H](O)[C@@H]1O [cyanidin-3-O-glucoside]	45.0%		Depletion % ([1]; listed as Cyanidin-3-O-glucoside): 45.0±3.5%; Log P [2]: 0.39^†
CCCCCCCCCCCC(=O)OCC(O)CO (stereo not shown) [glycerol monolaurate]		5.2	
CCCCCCCC/C=C\CCCCCCCC(=O)OCC(CO)OC(=O)CCCCCCC/C=C\CCCCCCCC (stereo not shown) [glycerol dioleate]		1.9	
CCCCCCCCCCCCOS(=O)(=O)[O-].[Na+] [sodium dodecyl sulfate]		40	
COc1cc(-c2[o+]c3cc(O)cc(O)c3cc2O[C@@H]2O[C@H](CO)[C@@H](O)[C@H](O)[C@H]2O)ccc1O [peonidin-3-O-glucoside]	43.0±4.0% and 43.0%		
O=C(O)c1cc(O)c(O)c(O)c1 [gallic acid]	did not induce precipitation of lecithin		
sorbitan tristearate [sorbitan tristearate (Span 65)]			Depletion % of monomeric anthocyanins ([5]; 0.01M surfactants in diluted cranberry juice): 2.85%; Depletion % of monomeric anthocyanins ([5]; 0.01M surfactants in diluted cranberry juice, listed as sorbitan tristearate): no significant changes
Oc1cc(O)c2cc(O[C@H]3OC[C@H](O)[C@H](O)[C@H]3O)c(-c3cc(O)c(O)c(O)c3)[o+]c2c1 [delphinidin-3-O-arabinoside]	11.1%		Depletion % ([1]; listed as Delphinidin-3-O-arabinose): 11.1±4.9%
Oc1ccc(C=Cc2cc(O)cc(O)c2)cc1 [resveratrol]			Log P [2]: 2.57^†
sodium stearoyl lactylate		5.1	
CCCCCCCC/C=C\CCCCCCCC(=O)[O-].[Na+] [sodium oleate]		18	
L-a-phosphatidylinositol (soy) [PI]			pka [4]: 2.5; Depletion % of monomeric anthocyanins [5, 6]: 41.4±8.5% and 41.4 ± 8.5^a %; Depletion % of monomeric anthocyanins ([5]; 0.01M phospholipid in cranberry juice, listed as Phosphatidylinositol (PI)): 41.4±8.5%
Phosphatidylethanolamine (soy) [PE]			pKa of the amino group [4]: about 9.5; pka [4]: 1.7; Depletion % of monomeric anthocyanins [5, 6]: 10.4±2.5% and 10.4 ± 2.5^b %
CCCCCCCC/C=C\CCCCCCCC(=O)OCC(O)CO (racemic) [glycerol monooleate]		3.4	
sorbitan monostearate		4.7	
O=c1c(-c2ccc(O)cc2)coc2cc(O)cc(O)c12 [genistein]	61.0%		Depletion % ([1]; listed as Genistein): 61.0±3.8%
peonidin-3-O-arabinoside	10.1%		Depletion % ([1]; listed as peonidin-3-O-arabinose): 10.1±6.3%
OC[C@H]1O[C@@H](Oc2cc3c(O)cc(O)cc3[o+]c2-c2ccc(O)c(O)c2)[C@H](O)[C@@H](O)[C@H]1O [cyanidin-3-O-galactoside]	49.1±3.5% and 49.1%		
triglycerol monostearate		7	

— patent US11548845B2, “Methods of isolating phenols from phenol-containing media” (WISCONSIN ALUMNI RESEARCH FOUNDATION, priority 2019, dated 2023)
